Source: publication PMC3352927, “Development and Validation of an Automated High-Throughput System for Zebrafish In Vivo Screenings” (PLoS ONE, 2012)
Entries after “also recorded” stand apart in the source; their conditions may differ. Counter-ions that a name gives are not always drawn. Like-named read-outs stand apart in the source and are kept apart here.

Key:
48 hpf zebrafish embryos = conditions: for Cardiotoxic effect in zebrafish: blind screened between 1 and 200 µM, predominant effect
Excerpt: The image analysis program for the Cardiotoxicity assay was based on the processing of the videos to obtain a periodic signal of the cardiac motion automatically and independent to the embryo position.
The detection of the heart beat frequency was based on the frequency spectrum analysis of the Euclidean Distance (ED) signal (built as the ED between the frames of the video referred to a reference frame calculated with the mean values of intensity for homogeneous zones). Obtaining the periodogram using the Discrete Fourier Transform (DFT), and modifying it to avoid undesired effects, the heart beat frequency was given by its first significant frequency (Figure 3 A).
For embryos with arrhythmia (A), the sinusoidal course of the ED signal was disrupted due to the irregular beating of the heart, i.e. the different beating frequency of each chamber. The classification of the arrhythmia cases was therefore based on the number of significant frequencies detected in the DFT of the ED signal (Figure 3 B).
Embryos at 48 hpf were automatically dispensed in a 96 well plate discarding exterior columns and rows and volume was leveled to 50µl with E3. Compounds were prepared 200 times concentrated in DMSO. A 1∶100 dilution was automatically made from the stock and 50 µl were added to each embryo to reach the final concentration. […] Embryos that moved during video recording were discarded. […] One video per embryo from a minimum of 10 embryos in each treated group were necessary for statistical analysis.

humans = conditions: known effects in humans; cited from earlier work
zebrafish embryos [1] = assay: Automated angiogenesis assay (ISV formation), Flk1:copGFP embryos treated at 22-26 hpf, read at 48 hpf; type: in vivo; conditions: for IC50: manually quantified; for Angiog. inhibition: presence or absence of an anti-angiogenic effect, 0.01-100 µM; for Anti-angiogenic phenotype (ISVs / DLAV): treated at 24 hpf, checked at 48 hpf; for Efective concentration (minimum concentration that showed an effect): given when IC50 could not be calculated
Excerpt: In the angiogenesis assay, the fluorescent images taken were processed using AxioVision 4.6.3 and a macro was developed to quantify an indirect measure of the area of the ISVs. […] However, we usually include a manual counting to offer a more detailed measurement of effect.
In the automatic analysis of angiogenesis, it is first necessary to perform a sequence of automated filtering functions on the image to extract information, define the region of interest (ROI), that in this case is the part of the tail containing the ISVs, and allow the measurement of the embryo length. Recovering a previous image, new filtering functions are applied to the ROI. A gradient image containing the ISVs, the DLAV (Dorsal Longitudinal Anastomotic Vessel), the PCV and the DA is created. Next, fluorescent areas that should not be quantified are discarded. Finally, only the areas comprised between the ISVs, the DLAV and the PCV or the DA are measured (Figure 4). In that way, when the vessels are incomplete or the DLAV is not present, an enclosed area is not present and therefore not measured.
The means obtained from the treated embryos were compared with the control mean. When statistically significant differences were detected a deeper analysis was done manually. In this case the parameters quantified were:
• The total number of ISVs present in the trunk of the embryos (from where the largest bulge of the yolk ends to the end of the tail). • Number of complete ISVs (reached the dorsal part of the embryo and formed the DLAV).
A curve of six concentrations (0.01, 0.1, 1, 10, 30 and 100 µM) was performed for all of them. […] IC50 was calculated when a clear dose-dependent anti-angiogenesis effect was detected. Otherwise, the minimum dose at which the inhibition of angiogenesis was observed is shown (Table 4).
At this time, chorions were removed with protease from Streptomyces griseus (Sigma-Aldrich) (1.5 mg/ml for 6 minutes) and the embryos were sorted and dispensed 1 per well in a 96 well assay plate. Each experimental condition was tested in a row with ten embryos. Embryos were dispensed in an average final volume of 90 µl of E3 media. 90 µl of the test items (DMSO and positive control KRN633 included) previously diluted 100 times were dispensed into each well of the assay plate containing the embryos to get the final volume of 180 µl and the desired final concentration.
The microscope scanned the wells by columns and a bright field image and a fluorescent image (2.5×magnification) were acquired per well. Then, the image analysis was performed and the result file generated.
Statistical analysis and graphical representation of the data were performed using SSPS (Statistical Package for the Social Sciences) software and Prism (Graph Pad Software) for IC50 calculations (non linear regression, sigmoidal dose-response with variable slope). […] In the angiogenesis assay, for comparisons between two groups, two-tailed t-test was used assuming unequal variances. For comparisons between more than two groups one-way analysis of variance followed by Dunnett’s post-test was applied to compare each data point with vehicle control.

zebrafish embryos [2] = assay: Embryo analysis at 72 hpf (blood circulation and ISVs development); type: in vivo; conditions: 72 hpf
Procedure: Embryos from the Flk1:copGFP line were treated with the indicated compounds at 22–23 hpf in 500 µl of E3 in p24 well plates (5 embryos per well). After 48 hours of treatment embryos were anesthetized with 10 µl Tricaine (final concentration 0.02%) and analyzed for the presence of blood circulation and ISVs development using a Leica M205 FA stereoscope equipped with a Hamamatsu C10600 camera.

[3] = Danio rerio, read-out: IC50 C.V. (complete number of vessels)
[4] = Danio rerio, read-out: IC50 T.V. (total number of vessels)
[5] = read-out: IC50 C.V. (complete number of vessels)
[6] = read-out: IC50 T.V. (total number of vessels)

## CCS(=O)(=O)N(C)[C@H]1c2cc(C#N)ccc2OC(C)(C)[C@@H]1O (racemic) [Chromanol 293b]
48 hpf zebrafish embryos
  Cardiotoxic effect in zebrafish: No effect
humans
  Cardiac effect in humans: QT-prolong.

## COc1cc2c(cc1O)CC[C@@H]1[C@@H]2CC[C@]2(C)[C@@H](O)CC[C@@H]12 [2-Methoxyestradiol]
Zebrafish embryos [1]; [3]
  IC50: 10.2 µM
Zebrafish embryos [1]; [4]
  IC50: 30.6 µM
Zebrafish embryos [1]
  Angiog. inhibition: Yes
  Anti-angiogenic phenotype (ISVs / DLAV): the formation of ISVs was perturbed with defective or total absence of sprouting

## Cc1cn[nH]c1.Cl [4-Methylpyrazole hydrochloride]
Zebrafish embryos [1]
  Angiog. inhibition: No

## COc1cc2ncnc(Nc3cccc(Cl)c3)c2cc1OC [AG1478]
Zebrafish embryos [1]; [5]
  IC50: 13 µM
Zebrafish embryos [1]; [6]
  IC50: 22.8 µM
Zebrafish embryos [1]
  Angiog. inhibition: Yes
  Anti-angiogenic phenotype (ISVs / DLAV): the formation of ISVs was perturbed with defective or total absence of sprouting; also recorded: lower number of incomplete ISVs

## COc1cc2ncc(-c3ccccc3)nc2cc1OC [AG-1296]
Zebrafish embryos [2]
  Blood circulation: impaired blood circulation
  ISVs appearance: thinner ISVs that were disrupted in some cases
Zebrafish embryos [1]
  Efective concentration (minimum concentration that showed an effect): 20 µM
  Angiog. inhibition: Yes
  Anti-angiogenic phenotype (ISVs / DLAV): moderate effect that did not increase with higher doses
Zebrafish embryos [1]; listed as AG1296
  Anti-angiogenic phenotype (ISVs / DLAV): inhibit proper development of the DLAV; also recorded: thinner ISVs rather than incomplete vessel formation

## CC(N)=O [Acetamide]
Zebrafish embryos [1]
  Angiog. inhibition: No

## CCCCc1oc2ccccc2c1C(=O)c1cc(I)c(OCCN(CC)CC)c(I)c1 [Amiodarone hydrochloride]
Zebrafish embryos [1]
  Angiog. inhibition: No

## CCCCc1oc2ccccc2c1C(=O)c1cc(I)c(OCCN(CC)CC)c(I)c1 [Amiodarone]
humans
  Cardiac effect in humans: QT-prolong.

## COc1ccc(CCN2CCC(Nc3nc4ccccc4n3Cc3ccc(F)cc3)CC2)cc1 [Astemizole]
humans
  Cardiac effect in humans: QT-prolong.

## CC(C)C[C@H](NC(=O)[C@@H](O)[C@H](N)Cc1ccccc1)C(=O)O [Bestatin]
Zebrafish embryos [1]
  Angiog. inhibition: No

## COc1cc(Nc2c(C#N)cnc3cc(OCCCN4CCN(C)CC4)c(OC)cc23)c(Cl)cc1Cl [Bosutinib]
Zebrafish embryos [2]
  Blood circulation: impaired blood circulation
  ISVs appearance: thinner ISVs that were disrupted in some cases
Zebrafish embryos [1]
  Efective concentration (minimum concentration that showed an effect): 50 µM
  Angiog. inhibition: Yes
  Anti-angiogenic phenotype (ISVs / DLAV): moderate effect that did not increase with higher doses

## COc1cc(N)c(Cl)cc1C(=O)NC1CCN(CCCOc2ccc(F)cc2)CC1OC (stereo not drawn) [Cisapride]
humans
  Cardiac effect in humans: QT-prolong.

## C[C@H]1O[C@@H](O[C@H]2[C@@H](O)C[C@H](O[C@H]3[C@@H](O)C[C@H](O[C@H]4CC[C@@]5(C)[C@H](CC[C@@H]6[C@@H]5CC[C@]5(C)[C@@H](C7=CC(=O)OC7)CC[C@]65O)C4)O[C@@H]3C)O[C@@H]2C)C[C@H](O)[C@@H]1O [Digitoxin]
48 hpf zebrafish embryos; 48 hpf zebrafish embryos, 5 µM
  Predominant observed effect: N
48 hpf zebrafish embryos
  Cardiotoxic effect in zebrafish: Cardiac arrest

## COc1cccc2c1C(=O)c1c(O)c3c(c(O)c1C2=O)C[C@@](O)(C(=O)CO)C[C@@H]3O[C@H]1C[C@H](N)[C@H](O)[C@H](C)O1 [Doxorrubicin]
humans
  Cardiac effect in humans: No effect

## CC(C)C[C@H](NC(=O)[C@H]1O[C@@H]1C(=O)O)C(=O)NCCCCN=C(N)N [E64]
Zebrafish embryos [1]
  Angiog. inhibition: No

## CNCCC(Oc1ccc(C(F)(F)F)cc1)c1ccccc1 (stereo not drawn) [Fluoxetine]
humans
  Cardiac effect in humans: Arrhythmia

## O=C(O)P(=O)(O)O [Foscarnet]
48 hpf zebrafish embryos
  Cardiotoxic effect in zebrafish: Bradycardia
humans
  Cardiac effect in humans: Bradycardia

## CO[C@@H]1[C@H](OC(=O)/C=C/C=C/C=C/C=C/C(=O)O)CC[C@]2(CO2)[C@H]1[C@@]1(C)O[C@@H]1CC=C(C)C [Fumagillin]
Zebrafish embryos [1]
  Angiog. inhibition: not detected and No

## COC(=O)c1ccc(O)c(NC(=O)COc2ccc(C34CC5CC(CC(C5)C3)C4)cc2)c1 [HIF-1 Inhibitor]
Zebrafish embryos [1]
  Angiog. inhibition: No
Zebrafish embryos [1]; listed as Hif-1 inhibitor
  Angiog. inhibition: not detected

## O=C1Nc2ccccc2/C1=C1/Nc2ccccc2/C1=N\O [Indirubin-3̀-oxime]
Zebrafish embryos [1]; [5]
  IC50: 4.2 µM
Zebrafish embryos [1]; [6]
  IC50: 18.3 µM
Zebrafish embryos [1]
  Angiog. inhibition: Yes
  Anti-angiogenic phenotype (ISVs / DLAV): the formation of ISVs was perturbed with defective or total absence of sprouting

## CCCNC(=O)Nc1ccc(Oc2ncnc3cc(OC)c(OC)cc23)cc1Cl [KRN633]
Zebrafish embryos [1]; [3]
  IC50: 0.026 µM
Zebrafish embryos [1]; [4]
  IC50: 0.035 µM
Zebrafish embryos [1]
  Angiog. inhibition: Yes
  Anti-angiogenic phenotype (ISVs / DLAV): the formation of ISVs was perturbed with defective or total absence of sprouting

## O=C(c1ccc(F)cc1)C1CCN(CCn2c(=O)[nH]c3ccccc3c2=O)CC1 [Ketanserin]
humans
  Cardiac effect in humans: Bradycardia

## CS(=O)(=O)CCNCc1ccc(-c2ccc3ncnc(Nc4ccc(OCc5cccc(F)c5)c(Cl)c4)c3c2)o1 [Lapatinib]
humans
  Cardiac effect in humans: No effect
